Results taken from US11192867B2, “Microbiocidal oxadiazole derivatives” (SYNGENTA PARTICIPATIONS AG, priority 2016, dated 2021).

What was measured:
[1] = system: Glomerella lagenarium (Colletotrichum lagenarium); assay: Fungicidal activity against Glomerella lagenarium (Colletotrichum lagenarium) liquid culture / cucumber / preventative (anthracnose); format: cell-based; settings: Colletotrichum orbiculare, 72 h; 20 ppm in the applied formulation; liquid culture (PDB), growth inhibition measured photometrically 3 to 4 days after application; vs untreated control; read-out: disease control
Method in brief: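 Photometric measurement of fungal growth inhibition 3 to 4 days after application gives percent activity relative to untreated check. Conidia were suspended in potato dextrose broth and combined with DMSO compound solutions; incubation at 24° C.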

[2] = system: Phakopsora pachyrhizi; assay: Fungicidal activity against Phakopsora pachyrhizi / soybean / leaf disc preventative (Asian soybean rust); format: in vivo; settings: foliar, 200 ppm in the applied formulation, soybean leaf disks, vs untreated control, read-out: disease control
Method in brief: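 Soybean leaf discs on water agar sprayed with compound diluted in water, then inoculated with spores on the lower surface one day later. Kept 24-36 h dark, 20 °C, 75% rh, then 12 h light/12 h dark. Percent disease control versus untreated scored 12-14 days after application.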

[3] = system: Puccinia recondita f. sp. Tritici; assay: Fungicidal activity against Puccinia recondita f. sp. Tritici / wheat / leaf disc preventative (brown rust); format: in vivo; settings: foliar, 200 ppm in the applied formulation, wheat leaf segments cv. Kanzler, inoculated 1 day after application, vs untreated control, read-out: disease control
Method in brief: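 Preventative leaf-segment test, cv. Kanzler on agar: spray compound, inoculate with spore suspension 1 d post-application, hold at 19° C./75% rh, 12 h/12 h light cycle. Read-out = % disease control vs untreated check at 7–9 d; 200 ppm in applied formulation.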

[4] = system: Puccinia recondita f. sp. Tritici; assay: Fungicidal activity against Puccinia recondita f. sp. Tritici / wheat / leaf disc curative (brown rust); format: in vivo; settings: foliar, 24 h, 200 ppm in the applied formulation, wheat leaf segments cv. Kanzler, applied 1 day after inoculation, vs untreated control, read-out: disease control
Method in brief: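 Read-out is percent disease control relative to untreated segments, assessed 6 to 8 days after treatment once check disease is adequate. Kanzler wheat leaf segments on agar receive fungal spores, then test compound (DMSO stock diluted in 0.025% Tween20 or water) 1 day later, under 19° C and 75% relative humidity.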

| SMILES | melting point | inhibition of growth at 20 ppm [1] | pest or weed control at 200 ppm [2] | pest or weed control at 200 ppm [3] | pest or weed control at 200 ppm [4] |
| --- | --- | --- | --- | --- | --- |
| C#CCO/N=C/CCNC(=O)c1ccc(-c2noc(C(F)(F)F)n2)cc1 [Compound 1.167, N-[(3E)-3-prop-2-ynoxyiminopropyl]-4-[5-(trifluoromethyl)-1,2,4-oxadiazol-3-yl]benzamide] | 89 to 91 °C | ≥ 80% | ≥ 80% | ≥ 80% | ≥ 80% |
| CCON=C(C)CNC(=O)c1ccc(-c2noc(C(F)(F)F)n2)cc1F [Compound 1.158, N-(2-ethoxyiminopropyl)-2-fluoro-4-[5-(trifluoromethyl)-1,2,4-oxadiazol-3-yl]benzamide] | 120 to 122 °C | ≥ 80% | ≥ 80% | ≥ 80% | ≥ 80% |
| O=C(NCC=NOCCF)c1ccc(-c2noc(C(F)(F)F)n2)cc1 [Compound 1.148, N-[2-(2-fluoroethoxyimino)ethyl]-4-[5-(trifluoromethyl)-1,2,4-oxadiazol-3-yl]benzamide] | 145 to 146 °C | ≥ 80% | ≥ 80% | ≥ 80% | ≥ 80% |
| CON=CCCNC(=O)c1ccc(-c2noc(C(F)(F)F)n2)cc1F [Compound 1.163, 2-fluoro-N-(3-methoxyimino-propyl)-4-[5-(trifluoromethyl)-1,2,4-oxadiazol-3-yl]benzamide] | 98 to 100 °C | ≥ 80% | ≥ 80% | ≥ 80% | ≥ 80% |
| O=C(NCCC=NO)c1ccc(-c2noc(C(F)(F)F)n2)cc1 [Compound 1.154, N-(3-hydroxyimino-propyl)-4-[5-(trifluoromethyl)-1,2,4-oxadiazol-3-yl]benzamide] | 180 to 183 °C | ≥ 80% | ≥ 80% | ≥ 80% | ≥ 80% |
| CON=CCCNC(=O)c1ccc(-c2noc(C(F)(F)F)n2)cc1 [Compound 1.152, N-(3-methoxyimino-propyl)-4-[5-(trifluoromethyl)-1,2,4-oxadiazol-3-yl]benzamide] | 136 to 140 °C | ≥ 80% | ≥ 80% | ≥ 80% | ≥ 80% |
| CC(/C=N\OCCF)NC(=O)c1ccc(-c2noc(C(F)(F)F)n2)cc1 (stereo not shown) [Compound 1.150, N-[(2Z)-2-(2-fluoroethoxyimino)-1-methyl-ethyl]-4-[5-(trifluoromethyl)-1,2,4-oxadiazol-3-yl]benzamide] | 172 to 173 °C | ≥ 80% | ≥ 80% | ≥ 80% | ≥ 80% |
| CON=CCCNC(=O)c1ccc(-c2noc(C(F)(F)F)n2)c(F)c1 [Compound 1.160, 3-fluoro-N-(3-methoxyiminopropyl)-4-[5-(trifluoromethyl)-1,2,4-oxadiazol-3-yl]benzamide] | 103 to 108 °C | ≥ 80% | ≥ 80% | ≥ 80% | ≥ 80% |
| CC(/C=N/OCCF)NC(=O)c1ccc(-c2noc(C(F)(F)F)n2)cc1 (stereo not shown) [Compound 1.149, N-[(2E)-2-(2-fluoroethoxy-imino)-1-methyl-ethyl]-4-[5-(trifluoromethyl)-1,2,4-oxadiazol-3-yl]benzamide] | 138 to 139 °C | ≥ 80% | ≥ 80% | ≥ 80% | ≥ 80% |
| C#CCO/N=C\NC(=O)c1ccc(-c2noc(C(F)(F)F)n2)cc1 [Compound 1.6, N-[(Z)-prop-2-ynoxyimino-methyl]-4-[5-(trifluoromethyl)-1,2,4-oxadiazol-3-yl]benzamide] | 114 to 119 °C | ≥ 80% | ≥ 80% | ≥ 80% | ≥ 80% |

Second part, led by results:

| melting point | SMILES | inhibition of growth at 20 ppm [1] | pest or weed control at 200 ppm [2] | pest or weed control at 200 ppm [3] | pest or weed control at 200 ppm [4] |
| --- | --- | --- | --- | --- | --- |
| 145 to 146 °C | CO/N=C(\C)CNC(=O)c1ccc(-c2noc(C(F)(F)F)n2)cc1 [Compound 1.13, N-[(2E)-2-methoxyimino-propyl]-4-[5-(trifluoromethyl)-1,2,4-oxadiazol-3-yl]benzamide] | ≥ 80% | ≥ 80% | ≥ 80% | ≥ 80% |
| 155 to 157 °C | CON=CCNC(=O)c1ccc(-c2noc(C(F)(F)F)n2)cc1 [Compound 1.10, N-(2-methoxyimino-ethyl)-4-[5-(trifluoromethyl)-1,2,4-oxadiazol-3-yl]benzamide] | ≥ 80% | ≥ 80% | ≥ 80% | ≥ 80% |
| 100.7 to 106.9 °C | CO/N=C(\C)C(NC(=O)c1ccc(-c2noc(C(F)(F)F)n2)cc1)OC (stereo not shown) [Compound 1.7, N-[(2E)-1-methoxy-2-methoxyimino-propyl]-4-[5-(trifluoromethyl)-1,2,4-oxadiazol-3-yl]benzamide] | ≥ 80% | ≥ 80% | ≥ 80% | ≥ 80% |
| 135 to 136 °C | CCON=C(C)CNC(=O)c1ccc(-c2noc(C(F)(F)F)n2)cc1 [Compound 1.12, N-(2-ethoxyimino-propyl)-4-[5-(trifluoromethyl)-1,2,4-oxadiazol-3-yl]benzamide] | ≥ 80% | ≥ 80% | ≥ 80% | ≥ 80% |
| 131 to 134 °C | CON=C(C)CNC(=O)c1ccc(-c2noc(C(F)(F)F)n2)c(F)c1 [Compound 1.164, 3-fluoro-N-(2-methoxyimino-propyl)-4-[5-(trifluoromethyl)-1,2,4-oxadiazol-3-yl]benzamide] | ≥ 80% | ≥ 80% | ≥ 80% | ≥ 80% |
| 133 to 134 °C | CC(CNC(=O)c1ccc(-c2noc(C(F)(F)F)n2)cc1)=NOCCF [Compound 1.151, N-[2-(2-fluoroethoxyimino)propyl]-4-[5-(trifluoromethyl)-1,2,4-oxadiazol-3-yl]benzamide] | ≥ 80% | ≥ 80% | ≥ 80% | ≥ 80% |
| 122 to 124 °C | CON=C(C)CNC(=O)c1ccc(-c2noc(C(F)(F)F)n2)cc1F [Compound 1.157, 2-fluoro-N-(2-methoxyimino-propyl)-4-[5-(trifluoromethyl)-1,2,4-oxadiazol-3-yl]benzamide] | ≥ 80% | ≥ 80% | ≥ 80% | ≥ 80% |
